Each block holds one substance with its values, some of them ahead of it. Where no end group is shown, it is not given here. The star is where a group is joined. 6xHis = N-terminal hexahistidine tag, N[C@@H](Cc1c[nH]cn1)C(=O)N[C@@H](Cc1c[nH]cn1)C(=O)N[C@@H](Cc1c[nH]cn1)C(=O)N[C@@H](Cc1c[nH]cn1)C(=O)N[C@@H](Cc1c[nH]cn1)C(=O)N[C@@H](Cc1c[nH]cn1)C(=O)*
How the values were obtained:
MRG15 (MRG domain) = target: T1, MRG15 (MRG domain) (Homo sapiens, UniProt Q9UBU8); test: Fluorescence anisotropy competition assay: displacement of WT FAM-PALB2; format: binding; settings: competition with WT FAM-PALB2, relative to WT
T1 construct: The MRG15 MRG domain, encompassing amino acids 155–323, was cloned into the pET28b^+-based pSMT3 vector; 6xHis-SUMO (N, cleaved yes); made in house; host or cells: E. coli BL21*
Description: For competition assays, mutant PALB2^597−630 peptides (Genscript Biotech, Piscataway, NJ, USA) were dissolved in DMSO and serially diluted from 10 µM to 0.6 nM in 20 µL of 25 mM HEPES pH 8.0, 1 mM TCEP, 10% DMSO, and 200 mM NaCl. A total of 40 nM MRG15 was mixed with 10 nM PALB2-FAM and incubated for 15 min at room temperature (RT). 20 µL of the MRG15 with FAM-PALB2 was then added to each well, resulting in a final concentration of […]. The total reaction volume was 40 µL. The plate was then shaken for 2 min and incubated for 15 min before the fluorescence anisotropy was measured as above. The inhibition constant Ki was calculated similarly to Kd (above).
Mutations of several residues in the MRG-binding region of PALB2 were found in breast cancer patients, including Asp616His, Pro615Ser and Pro621Thr mutations (Figure 5A,B). We analyzed the effect of these mutations on PALB2 interaction with MRG by a competition assay (Figure 5C,D). An MRG complex with 10 nM WT PALB2 peptide was formed, and the comparative affinity of mutants (Ki) was assayed by the dissociation rate of FAM-PALB2 from MRG15 upon titration by a mutant peptide. In addition, the contribution of core hydrophobic amino acids was assayed by alanine substitution. None of the peptides with a core hydrophobic amino acid substitution were able to compete with wtPALB2 binding. […] Substitution of Asp616 with histidine reduced the affinity by a factor of 2. […] Substitution of this proline in the middle of an α-helical turn may increase flexibility and result in a tighter binding of αH2 to the hydrophobic pocket of MRG.

[1] = target: T2, MRG15^155−323 (MRG domain) (Homo sapiens, UniProt Q9UBU8); test: Fluorescence anisotropy binding of FAM-PALB2 peptide
T2 construct: The MRG15 MRG domain, encompassing amino acids 155–323, was cloned into the pET28b^+-based pSMT3 vector; 6xHis-SUMO (N, cleaved yes); made in house; host or cells: E. coli BL21*
Description: Fluorescence anisotropy binding and competition assays were performed using black 384-well plates (Corning Inc., Corning, NY, USA) and a Synergy Neo2 plate reader (BioTek, Winooski, VT, USA). Binding assays were conducted by serially diluting the MRG15 fragment from 10 µM to 0.6 nM. A 40 µL solution of 20 µM MRG was serially diluted in 20 µL of 25 mM HEPES pH8.0, 1 mM TCEP, 10% DMSO, and 200 mM NaCl. A total of 20 µL of a 20 nM FAM-PALB2^597−630 solution was then added to each well for a final reaction volume of 40 µL and a final PALB2 concentration of 10 nM. The plate was shaken for 2 min and incubated for 15 min. Fluorescence anisotropy was measured with 485/20 nm excitation and 528/20 nm emission using Gen5.0 (BioTek) software. Kd was calculated with GraphPad Prism software by fitting the data with a non-linear regression analysis using a standard four-parameter logistic equation to identify Kd. […] R^2 is determined by the Prism software by computing the sum of the squares of the distances of the points from the best-fit curve determined by a nonlinear regression model.
Proteins interact with the MRG domain through a conserved FxLP motif. […] The binding affinity of this peptide to MRG15 was measured using the polarization anisotropy method with fluorescein-labeled PALB2^597−630 peptide (FAM-PALB2, Genscript Biotech, Piscataway, NJ, USA). […]

MRG15^155−323 = test: Ni-NTA pull-down of MRG15 by 6xHis-tagged PALB2 peptides; format: binding; settings: preliminary qualitative experiment; Ni-NTA agarose, SDS-PAGE
Description: Ni-NTA beads (200 µL of 50% slurry) were equilibrated with Buffer B (25 mM HEPES pH 7.5, 10% glycerol, 2 mM CHAPS and 300 mM NaCl). 1 mL of PALB2 peptide at concentration 0.1 mg·mL^−1 was bound to Ni-NTA beads, and excess peptides were washed off with Buffer B (1 mL). A total of 1 mL of 0.1 mg·mL^−1 MRG15^155−323 was added to the beads and incubated for 30 min. Beads were washed 3 times with Buffer B with 20 mM imidazole. Protein complexes were eluted with Buffer B with 250 mM imidazole. MRG15^155−323 alone, mixed with Ni-NTA beads without any peptide bound, was used as control to eliminate non-specific binding. Samples were analyzed by SDS-PAGE.
Proteins interact with the MRG domain through a conserved FxLP motif. All known structures of MRG complexes reveal significant contributions to the binding of extended regions up- and downstream of the FxLP motif. Flanking regions have low sequence and structural conservation, making it challenging to predict which regions of PALB2 around the FQLP sequence motif (amino acids 612–615) are involved in the interaction. […] The binding affinity of this peptide to MRG15 was measured using the polarization anisotropy method with fluorescein-labeled PALB2^597−630 peptide (FAM-PALB2, Genscript Biotech, Piscataway, NJ, USA). […]

T1 sequence (Q9UBU8 194-362): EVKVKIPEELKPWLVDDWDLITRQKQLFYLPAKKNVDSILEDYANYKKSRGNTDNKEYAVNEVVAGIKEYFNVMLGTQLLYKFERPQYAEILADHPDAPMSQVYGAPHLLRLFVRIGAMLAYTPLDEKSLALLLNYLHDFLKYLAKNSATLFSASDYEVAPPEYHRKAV
T2 sequence (Q9UBU8 194-362): as above

- effect on binding affinity (MRG15 (MRG domain)): increased the binding affinity
Substance: MLSLKQLLSFLSITDFQLPDEDFGTLKLEKVKSC [P621T]

- reduction in binding affinity vs WT (MRG15 (MRG domain)): 5 fold
Substance: MLSLKQLLSFLSITDFQLSDEDFGPLKLEKVKSC [P615S]

- binding affinity to MRG domain [1]: nanomolar affinity
Substance: 597 630: PALB2 fragment encompassing amino acids 597–630 with the N-terminal 6xHis tag; crystallized with MRG15 (PDB ID 7S4A) (6xHis-MLSLKQLLSFLSITDFQLPDEDFGPLKLEKVKSC)
- complex formation with MRG15 in pull-down (MRG15^155−323): sufficient for the formation of a stable complex

- factor by which affinity is reduced vs WT (MRG15 (MRG domain); 'by a factor of'): 2
Substance: MLSLKQLLSFLSITDFQLPHEDFGPLKLEKVKSC [D616H]
